Experimental data: publication PMC10385579, “Design, Synthesis, and Biological Evaluation of Indole-2-carboxamides as Potential Multi-Target Antiproliferative Agents” (Pharmaceuticals, 2023)

Columns and labels:
[1] = Cell viability assay (MTT) on MCF-10A; format: cell-based; conditions: human, MCF-10A mammary gland epithelial cells, MCF-10A cells, four days
Description: To assess the viability of compounds IV and Va–i, the human mammary gland epithelial (MCF-10A) cell line was exploited. Compounds IV and Va–i were cultured for four days on MCF-10A cells before being evaluated for vitality using the MTT assay.
To test the viability of the new compounds, the human mammary gland epithelial (MCF-10A) cell line was used. Compounds IV and Va–i were incubated on MCF-10A cells for four days before being tested for viability using the MTT assay. See Supplementary Materials.
4.2. Biological evaluation
4.2.1. Cytotoxic activity using MTT Assay and evaluation of IC50
MTT assay was performed to investigate the effect of the synthesized compounds on mammary epithelial cells (MCF-10A). The cells were propagated in medium consisting of Ham's F-12 medium/ Dulbecco's modified Eagle's medium (DMEM) (1:1) supplemented with 10% foetal calf serum, 2 mM glutamine, insulin (10 μg/mL), hydrocortisone (500 ng/mL) and epidermal growth factor (20 ng/mL). Trypsin ethylenediamine tetra acetic acid (EDTA) was used to passage the cells after every 2-3 days. 96-well flat-bottomed cell culture plates were used to seed the cells at a density of 10^4 cells mL-1. The medium was aspirated from all the wells of culture plates after 24 h followed by the addition of synthesized compounds (in 200 μL medium to yield a final concentration of 0.1% (v/v) dimethyl sulfoxide) into individual wells of the plates. Four wells were designated to a single compound. The plates were allowed to incubate at 37°C for 96 h. Afterwards, the medium was aspirated and 3-[4,5-dimethylthiazol-2-yl]-2,5-diphenyltetrazolium bromide (MTT) (0.4 mg/mL) in medium was added to each well and subsequently incubated for 3 h. The medium was aspirated and 150 μL dimethyl sulfoxide (DMSO) was added to each well. The plates were vortexed followed by the measurement of absorbance at 540 nm on a microplate reader. The results were presented as inhibition (%) of proliferation in contrast to controls comprising 0.1%

[2] = system: human epithelial (A-549) cancer cell line; assay: Antiproliferative assay, A-549; format: cell-based; conditions: A549, read-out: Antiproliferative Activity IC50 ± SEM, A-549
Description: (§1) 4.2.1.2. Assay for antiproliferative effect
(§2) To explore the antiproliferative potential of compounds propidium iodide fluorescence assay was performed using different cell lines such as Panc-1 (pancreas cancer cell line), MCF-7 (breast cancer cell line), HT-29 (colon cancer cell line) and A-549 (epithelial cancer cell line), respectively.
(§3) To calculate the total nuclear DNA, a fluorescent dye (propidium iodide, PI) is used which can attach to the DNA, thus offering a quick and precise technique. PI cannot pass through the cell membrane and its signal intensity can be considered as directly proportional to quantity of cellular
(§4) DNA. Cells whose cell membranes are damaged or have changed permeability are counted as dead ones. The assay was performed by seeding the cells of different cell lines at a density of 3000-7500 cells/well (in200μl medium) in culture plates followed by incubation for 24h at 37 °C in humidified 5%CO2/95% air atmospheric conditions. The medium was removed; the compounds were added to the plates at 10 μM concentrations (in 0.1% DMSO) in triplicates, followed by incubation for 48h. DMSO (0.1%) was used as control. After incubation, medium was removed followed by the addition of PI (25 μl, 50μg/mL in water/medium) to each well of the plates. At - 80 °C, the plates were allowed to freeze for 24 h, followed by thawing at 25 °C. A fluorometer (Polar-Star BMG Tech) was used to record the readings at excitation and emission wavelengths of 530 and 620 nm for each well. The percentage cytotoxicity of compounds was calculated using […]
(§5) Where ATC= Absorbance of treated cells and AC= Absorbance of control. Erlotinib was used as positive control in the assay.

[3] = system: breast cancer (MCF-7) cell line; assay: Antiproliferative assay, MCF-7; format: cell-based; conditions: Homo sapiens, MCF7; read-out: Antiproliferative Activity IC50 ± SEM, MCF-7
Description: as §1, §2, §3, §4, §5

[4] = system: pancreatic cancer (Panc-1) cell line; assay: Antiproliferative assay, Panc-1; format: cell-based; conditions: Homo sapiens, read-out: Antiproliferative Activity IC50 ± SEM, Panc-1
Description: as §1, §2, §3, §4, §5

[5] = system: colon cancer (HT-29) cell line; assay: Antiproliferative assay, HT-29; format: cell-based; conditions: Homo sapiens, read-out: Antiproliferative Activity IC50 ± SEM, HT-29
Description: as §1, §2, §3, §4, §5

[6] = system: four human cancer cell lines (A-549, MCF-7, Panc-1, HT-29); assay: Antiproliferative assay, average over the four cancer cell lines (GI50); format: cell-based; conditions: average of the four cancer cell lines
Description: See Supplementary Materials.
as §1
To explore the antiproliferative potential of compounds propidium iodide fluorescence assay was performed using different cell lines such as Panc-1 (pancreas cancer cell line), MCF-7 (breast […]
as §3
DNA. Cells whose cell membranes are damaged or have changed permeability are counted as dead ones. The assay was performed by seeding the cells of different cell lines at a density of 3000- […]
The medium was removed; the compounds were added to the plates at 10 μM concentrations (in 0.1% DMSO) in triplicates, followed by incubation for 48h. DMSO (0.1%) was used as control. After incubation, medium was removed followed by the addition of PI (25 μl, 50μg/mL in water/medium) to each well of the plates. At - 80 °C, the plates were allowed to freeze for 24 h, followed by thawing at 25 °C. A fluorometer (Polar-Star BMG Tech) was used to record the readings at excitation and emission wavelengths of 530 and 620 nm for each well. The percentage cytotoxicity of compounds was calculated using […]
Where ATC= Absorbance of treated cells and AC= Absorbance of control. […]
positive control in the assay.

SMILES	IC50 [2] [nM]	IC50 [3] [nM]	IC50 [4] [nM]	IC50 [5] [nM]	GI50 [6] [nM]	melting point [°C]	viability at 96 h, 50 µM [1] [%]
NCC(c1ccccc1)c1c(-c2ccccc2)[nH]c2ccccc12 (stereo not drawn) [Compound IV, 2-phenyl-2-(2-phenyl-1H-indol-3-yl)ethan-1-amine]	102 ± 10	106 ± 10	104 ± 10	104 ± 10	104	167 to 169	92
CCc1c(C(=O)NCC(c2ccccc2)c2c(-c3ccccc3)[nH]c3ccccc23)[nH]c2ccc(Cl)cc12 (stereo not drawn) [Compound Vc, 5-Chloro-3-ethyl-N-(2-phenyl-2-(2-phenyl-1H-indol-3-yl)ethyl)-1H-indole-2-carboxamide]	54 ± 5	57 ± 5	56 ± 5	55 ± 5	56	110 to 112	91
C#Cc1cccc(Nc2ncnc3cc(OCCOC)c(OCCOC)cc23)c1 [Erlotinib, reference compound]	30 ± 3	40 ± 3	30 ± 3	30 ± 3	–	–	–

The next lines start with results.

IC50 [2] [nM]	IC50 [3] [nM]	IC50 [4] [nM]	IC50 [5] [nM]	GI50 [6] [nM]	melting point [°C]	SMILES	viability at 96 h, 50 µM [1] [%]
58 ± 5	61 ± 6	58 ± 5	59 ± 5	59	135 to 137	Cc1c(C(=O)NCC(c2ccccc2)c2c(-c3ccccc3)[nH]c3ccccc23)[nH]c2ccc(Cl)cc12 (stereo not drawn) [Vb, 5-Chloro-3-methyl-N-(2-phenyl-2-(2-phenyl-1H-indol-3-yl)ethyl)-1H-indole-2-carboxamide]	88
64 ± 6	68 ± 6	66 ± 6	66 ± 6	66	130 to 132	CCc1c(C(=O)NCC(c2ccccc2)c2c(-c3ccccc3)[nH]c3ccccc23)[nH]c2ccc(Br)cc12 (stereo not drawn) [Vd, 5-Bromo-3-ethyl-N-(2-phenyl-2-(2-phenyl-1H-indol-3-yl)ethyl)-1H-indole-2-carboxamide]	89
86 ± 8	89 ± 8	85 ± 8	85 ± 8	86	225 to 227	CCc1c(C(=O)NCC(c2ccccc2)c2c(-c3ccccc3)[nH]c3ccccc23)oc2ccc(Cl)cc12 (stereo not drawn) [Vi, 5-Chloro-3-ethyl-N-(2-phenyl-2-(2-phenyl-1H-indol-3-yl)ethyl)benzofuran-2-carboxamide]	89
